{"source": "patent US20260101895A1", "about": "“[…] AND COMPOSITION” (Innospec Limited, priority 2022, published 2026)", "key": {"[1]": {"conditions": "initial solubility; 2 g complex in 100 ml deionised water, room temperature, 20 minutes, filtered 0.45 μm", "from_the_text": "By the term “copper bioavailability” we mean the amount of copper that is released upon contact with water, i.e. so as to provide free copper ions for consumption by fungi. Copper bioavailability values may be measured using any suitable method, including the method as set out in the Examples. The copper bioavailability may be determined by measuring the content of copper in a sample (for example using a colorimetric test that compares to copper nitrate solutions of known concentrations) and converting the copper content to an amount of bioavailable copper (in ppm) using the formula: […]\nThe copper content is converted to bioavailable copper using the formula:\nA solution of each copper amino carboxylic acid complex was prepared by dissolving 2 g of the copper complex in 100 ml deionised water and stirring at room temperature for 20 minutes. A sample of this solution was then withdrawn and filtered through a 0.45 μm syringe.\nThe filtered copper liquid was diluted with 1% nitric acid to yield a solution containing an approximate maximum of 1 mg/L Cu2+. The total copper content was then determined using a Perkin Elmer NexION 350D and converted to bioavailable copper using the formula above."}, "[2]": {"test": "Repeated solubility: copper bioavailability over repeated wettings (colorimetric)", "conditions": "for Bioavailable copper Step 1 / Bioavailable copper Step 2 / Bioavailable copper Step 3 / Bioavailable copper Step 4 / Bioavailable copper Step 5: repeated solubility; for Bioavailable copper Step 1: 1 g complex in 50 ml deionised water, centrifuged, filtered, colorimetric 635 nm; for Bioavailable copper Step 2 / Bioavailable copper Step 3 / Bioavailable copper Step 4 / Bioavailable copper Step 5: undissolved material in 50 ml fresh deionised water", "procedure": "The colorimetric absorbance at 635 nm using a Hach Lange DR3900 Spectrophotometer of copper nitrate solutions of known concentrations gives a linear relationship where:\nAbsorbance is relative to a standard solution of 9.9 ml deionised water, 0.1 ml 68 to 70% nitric acid\nThe copper content is converted to bioavailable copper using the formula: […]\nTo determine the copper content of each of the copper amino carboxylic acid complexes, 9.9 ml of filtered copper containing solution and 0.1 mL of 68 to 70% nitric acid was added to a spectrometer vial to completely react all of the copper complex to copper nitrate.\nThe absorbance at 635 nm (pre-zeroed with solution of 9.9 mL deionised water and 0.1 mL nitric acid) was recorded.\n1 g of each copper amino carboxylic acid complex was added to 50 ml deionised water in a 50 ml centrifuge tube and stirred. The resulting mixture was centrifuged at 4000 rpm for 30 minutes, a sample of this was withdrawn and filtered through a 0.45 μm syringe. The copper content was determined using the above colorimetric method.\nThe remaining liquid in the centrifuge tube was poured away leaving only some undissolved material. 50 ml of fresh deionised water was added to the centrifuge tube containing undissolved material. The stirring and centrifugation process was repeated until no undissolved material remained.\nThese measurements indicate the bioavailability of the copper over repeated wettings in use."}}, "data": [{"compound": "Copper L-asparaginate", "values": [{"measurement": "Bioavailable Cu by ICP-MS", "setting": "[1]", "result": 7125, "unit": "ppm"}]}, {"compound": "Copper lysinate", "values": [{"measurement": "Bioavailable copper Step 1", "setting": "[2]", "result": 79000, "unit": "ppm"}, {"measurement": "Bioavailable copper Step 2", "setting": "[2]", "result": 24000, "unit": "ppm"}, {"measurement": "Bioavailable copper Step 3", "setting": "[2]", "result": 8375, "unit": "ppm"}, {"measurement": "Bioavailable copper Step 4", "setting": "[2]", "result": 4000, "unit": "ppm"}, {"measurement": "Bioavailable copper Step 5", "setting": "[2]", "result": 0, "unit": "ppm"}, {"measurement": "Bioavailable Cu by ICP-MS", "setting": "[1]", "result": 106950, "unit": "ppm"}]}, {"compound": "Copper isoleucinate", "values": [{"measurement": "Bioavailable Cu by ICP-MS", "setting": "[1]", "result": 13050, "unit": "ppm"}]}, {"compound": "O=C([O-])CNCC(=O)[O-].[Cu+2]", "note": "[Copper iminodiacetate]", "values": [{"measurement": "Bioavailable copper Step 1", "setting": "[2]", "result": 27750, "unit": "ppm"}, {"measurement": "Bioavailable copper Step 2", "setting": "[2]", "result": 27750, "unit": "ppm"}, {"measurement": "Bioavailable copper Step 3", "setting": "[2]", "result": 27750, "unit": "ppm"}, {"measurement": "Bioavailable copper Step 4", "setting": "[2]", "result": 27750, "unit": "ppm"}, {"measurement": "Bioavailable copper Step 5", "setting": "[2]", "result": 27125, "unit": "ppm"}, {"measurement": "Bioavailability over repeated wettings/steps (in words)", "setting": "[2]; summary of Table 2", "result": "good bioavailability for 3 or more wettings/steps"}, {"measurement": "Bioavailable Cu by ICP-MS", "setting": "[1]", "result": 33000, "unit": "ppm"}]}, {"compound": "Copper phenylalaninate", "values": [{"measurement": "Bioavailable Cu by ICP-MS", "setting": "[1]", "result": 5250, "unit": "ppm"}]}, {"compound": "Copper 12-aminododecanoate", "values": [{"measurement": "Bioavailable Cu by ICP-MS", "setting": "[1]", "result": 9200, "unit": "ppm"}]}, {"compound": "Copper 2-aminooctanoate", "values": [{"measurement": "Bioavailable Cu by ICP-MS", "setting": "[1]", "result": 150, "unit": "ppm"}]}, {"compound": "Copper sarcosinate", "values": [{"measurement": "Bioavailable Cu by ICP-MS", "setting": "[1]", "result": 278000, "unit": "ppm"}]}]}
